In one assay the target is human M1 receptor (Homo sapiens (Human), UniProt P11229). Briefly: Radioligand (tritiated N-methylscopolamine) binding assay, M1. To be noted: CHO cell membranes expressing human M1; 1.5 nM tritiated N-methylscopolamine; 90 min, 37° C.; read-out: Ki against M1 receptor (Table 21, M1). How it is done: (§1) Binding affinity (Ki) of compounds was measured by inhibition of radioligand binding to membranes from CHO cells expressing human M1, M2, M3, M4 and M5 receptors. Membranes were prepared by nitrogen cavitation and differential centrifugation as previously described (Hoare et al., Mol. Pharmacol. 2003 March; 63(3): 751-65). The radioligand employed was tritiated N-methylscopolamine, used at a concentration of 1.5 nM. A dose-response of twelve concentrations of compound was used, ranging from 10 μM to […]. The assay buffer was 50 mM HEPES, 100 mM NaCl, 5 mM MgCl2, 1 mM ethylenediaminetetraacetic acid, pH-adjusted to pH 7.4. Membranes, radioligand and compound were incubated together for 90 minutes at 37° C., in a total volume of 150 μl in a 96-well plate. Receptor-bound radioligand was then collected by harvesting the assay over glass fiber filters pretreated with polyethylenimine to trap the cell membranes, using rapid vacuum filtration. Harvesting and radioactivity counting was conducted as previously described (see, e.g., Hoare et al., Mol. Pharmacol. 2003 63(3):751-65); Erratum at Mol. Pharmacol. 2005 July; 68(1): 260).

The next assay addresses human M2 receptor (Homo sapiens (Human), UniProt P08172). Briefly: Radioligand (tritiated N-methylscopolamine) binding assay, M2. To be noted: CHO cell membranes expressing human M2; 1.5 nM tritiated N-methylscopolamine; 90 min, 37° C.; read-out: Ki against M2 receptor (Table 21, M2). On the procedure:
as §1

In the next assay the target is human M3 receptor (Homo sapiens (Human), UniProt P20309). The assay can be described thus: Radioligand (tritiated N-methylscopolamine) binding assay, M3. The note with it: CHO cell membranes expressing human M3; 1.5 nM tritiated N-methylscopolamine; 90 min, 37° C.; read-out: Ki against M3 receptor (Table 21, M3). How it is done: as §1
The target of another assay is human M4 receptor (Homo sapiens (Human), UniProt P08173). The assay can be described thus: Radioligand (tritiated N-methylscopolamine) binding assay, M4. To be noted: Ki against the M4 receptor; membranes from CHO cells expressing human M4; tritiated N-methylscopolamine 1.5 nM; read-out: Ki. An outline of the steps: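 Test compound (12 concentrations, 10 μM to […]), 1.5 nM radioligand and CHO receptor membranes were co-incubated at 37 °C for 90 minutes in 50 mM HEPES buffer with 100 mM NaCl, 5 mM MgCl2 and 1 mM EDTA, pH 7.4. Membranes were then harvested onto polyethylenimine-pretreated filters and radioactivity was counted to determine Ki.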

Another assay concerns the target human M5 receptor (Homo sapiens (Human), UniProt P08912). The assay can be described thus: Radioligand (tritiated N-methylscopolamine) binding assay, M5. To be noted: CHO cell membranes expressing human M5; 1.5 nM tritiated N-methylscopolamine; 90 min, 37° C.; read-out: Ki against M5 receptor (Table 21, M5). On the procedure:
as §1

As usually defined, the Ki is the dissociation constant of the complex between target and ligand, obtained from inhibition or displacement.

Each structure is given as a SMILES string.

human M5 receptor, sequence (P08912 whole entry): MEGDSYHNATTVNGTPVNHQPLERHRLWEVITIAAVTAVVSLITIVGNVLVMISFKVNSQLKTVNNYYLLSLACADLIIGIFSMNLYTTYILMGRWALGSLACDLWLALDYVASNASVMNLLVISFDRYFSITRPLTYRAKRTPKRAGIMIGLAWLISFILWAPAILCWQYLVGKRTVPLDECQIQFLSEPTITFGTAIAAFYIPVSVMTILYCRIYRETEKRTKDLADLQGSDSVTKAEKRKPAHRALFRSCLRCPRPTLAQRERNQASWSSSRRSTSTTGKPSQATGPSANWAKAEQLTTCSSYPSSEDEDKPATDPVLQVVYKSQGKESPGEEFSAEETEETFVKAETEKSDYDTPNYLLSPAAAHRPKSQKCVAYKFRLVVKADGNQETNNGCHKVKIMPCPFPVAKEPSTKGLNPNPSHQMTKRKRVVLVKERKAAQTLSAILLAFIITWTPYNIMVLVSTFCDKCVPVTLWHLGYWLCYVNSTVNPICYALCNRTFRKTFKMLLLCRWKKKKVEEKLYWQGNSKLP
human M3 receptor, sequence (P20309 whole entry): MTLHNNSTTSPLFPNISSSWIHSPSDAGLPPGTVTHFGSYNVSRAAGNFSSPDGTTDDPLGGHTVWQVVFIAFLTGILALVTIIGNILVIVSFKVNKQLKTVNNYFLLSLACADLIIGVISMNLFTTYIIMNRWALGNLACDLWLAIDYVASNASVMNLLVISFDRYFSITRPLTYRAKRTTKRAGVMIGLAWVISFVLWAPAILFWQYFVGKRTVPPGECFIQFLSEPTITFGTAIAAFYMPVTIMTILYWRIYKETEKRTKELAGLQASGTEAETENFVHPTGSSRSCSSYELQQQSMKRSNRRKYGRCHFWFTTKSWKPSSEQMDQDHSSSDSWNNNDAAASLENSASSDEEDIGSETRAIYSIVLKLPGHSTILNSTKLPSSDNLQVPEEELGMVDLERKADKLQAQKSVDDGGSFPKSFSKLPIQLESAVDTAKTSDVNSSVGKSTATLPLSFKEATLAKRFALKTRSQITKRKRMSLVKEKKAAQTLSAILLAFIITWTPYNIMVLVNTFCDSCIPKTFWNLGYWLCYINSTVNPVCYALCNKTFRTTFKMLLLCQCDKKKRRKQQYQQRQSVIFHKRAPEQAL
human M4 receptor, sequence (P08173 whole entry): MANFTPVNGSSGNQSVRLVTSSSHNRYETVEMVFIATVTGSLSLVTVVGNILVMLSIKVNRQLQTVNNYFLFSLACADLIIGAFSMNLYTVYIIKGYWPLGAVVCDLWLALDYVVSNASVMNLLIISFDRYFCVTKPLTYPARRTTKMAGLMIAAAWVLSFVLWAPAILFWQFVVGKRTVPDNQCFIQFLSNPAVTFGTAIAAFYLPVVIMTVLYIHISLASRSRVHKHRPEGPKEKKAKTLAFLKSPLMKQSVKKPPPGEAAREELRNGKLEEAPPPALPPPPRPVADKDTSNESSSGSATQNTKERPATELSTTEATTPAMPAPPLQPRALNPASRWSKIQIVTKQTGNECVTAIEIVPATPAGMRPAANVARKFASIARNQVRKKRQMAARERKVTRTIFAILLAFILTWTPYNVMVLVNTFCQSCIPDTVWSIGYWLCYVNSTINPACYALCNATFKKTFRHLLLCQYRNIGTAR
human M1 receptor, sequence (P11229 whole entry): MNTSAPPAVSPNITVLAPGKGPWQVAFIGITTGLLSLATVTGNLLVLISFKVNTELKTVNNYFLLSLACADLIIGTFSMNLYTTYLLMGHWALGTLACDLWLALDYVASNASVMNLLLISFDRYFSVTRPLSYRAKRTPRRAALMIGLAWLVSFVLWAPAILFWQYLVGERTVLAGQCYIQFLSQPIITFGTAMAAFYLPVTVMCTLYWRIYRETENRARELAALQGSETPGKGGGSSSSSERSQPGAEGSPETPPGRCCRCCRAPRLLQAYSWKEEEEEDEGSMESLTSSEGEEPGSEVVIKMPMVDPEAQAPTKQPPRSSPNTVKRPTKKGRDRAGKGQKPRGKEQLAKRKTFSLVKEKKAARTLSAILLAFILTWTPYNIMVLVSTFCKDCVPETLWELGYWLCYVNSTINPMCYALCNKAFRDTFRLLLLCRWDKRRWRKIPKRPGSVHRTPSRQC
human M2 receptor, sequence (P08172 whole entry): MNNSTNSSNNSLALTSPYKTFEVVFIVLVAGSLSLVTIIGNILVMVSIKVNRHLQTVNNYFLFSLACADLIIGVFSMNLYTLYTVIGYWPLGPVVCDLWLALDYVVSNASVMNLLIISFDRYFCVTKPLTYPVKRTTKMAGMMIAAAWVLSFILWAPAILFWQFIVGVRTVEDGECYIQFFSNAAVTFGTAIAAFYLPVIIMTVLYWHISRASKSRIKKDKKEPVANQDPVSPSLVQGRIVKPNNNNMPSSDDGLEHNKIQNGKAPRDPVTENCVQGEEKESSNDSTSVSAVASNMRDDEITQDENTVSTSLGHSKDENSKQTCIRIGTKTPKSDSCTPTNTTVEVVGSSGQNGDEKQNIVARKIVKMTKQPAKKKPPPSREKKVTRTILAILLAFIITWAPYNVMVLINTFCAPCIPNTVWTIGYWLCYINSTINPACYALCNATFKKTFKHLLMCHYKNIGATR

Take `C[C@@H]1CN(c2ccc(OC(F)(F)F)c(C#N)c2)CCN1C(=O)NCCC1CCN(Cc2ccccc2)CC1` [3-1, (2R)-N-[2-(1-benzylpiperidin-4-yl)ethyl]-4-[3-cyano-4-(trifluoromethoxy)phenyl]-2-methylpiperazine-1-carboxamide]: the Ki is 100 to 1000 nM at human M1 receptor; 10 to 100 nM on human M2 receptor; > 1000 nM at human M3 receptor; < 10 nM on human M4 receptor; > 1000 nM on human M5 receptor.
`C[C@@H]1CN(c2ccc(OC(F)(F)F)c(C#N)c2)CCN1C(=O)NCCC1(O)CCN(Cc2ccccc2)CC1` [3-5, (2R)-N-[2-(1-benzyl-4-hydroxypiperidin-4-yl)ethyl]-4-[3-cyano-4-(trifluoromethoxy)phenyl]-2-methylpiperazine-1-carboxamide]: the Ki on human M1 receptor was > 1000 nM; at human M2 receptor it was 100 to 1000 nM; at human M3 receptor, > 1000 nM; at human M4 receptor, < 10 nM; on human M5 receptor, > 1000 nM.
On to `C[C@@H]1CN(c2ccc(OC(F)(F)F)nc2)CCN1C(=O)NCCC1CCN(Cc2ccccc2)CC1` [3-8, (2R)-N-[2-(1-benzylpiperidin-4-yl)ethyl]-2-methyl-4-[6-(trifluoromethoxy)pyridin-3-yl]piperazine-1-carboxamide], for which the Ki on human M1 receptor was 100 to 1000 nM; on human M2 receptor, 10 to 100 nM; on human M3 receptor, 100 to 1000 nM; at human M4 receptor, < 10 nM; at human M5 receptor, > 1000 nM.
As to `C[C@@H]1CN(c2ncc(C(F)(F)F)cn2)CCN1C(=O)NCCC1CCN(Cc2ccccc2)CC1` [3-9, (2R)-N-[2-(1-benzylpiperidin-4-yl)ethyl]-2-methyl-4-[5-(trifluoromethyl)pyrimidin-2-yl]piperazine-1-carboxamide], the Ki at human M1 receptor was 100 to 1000 nM; on human M2 receptor it was 10 to 100 nM; on human M3 receptor, 100 to 1000 nM; at human M4 receptor, < 10 nM; on human M5 receptor it was > 1000 nM.
On to `C[C@@H]1CN(c2ncc(C(F)(F)F)cc2F)CCN1C(=O)NCCC1CCN(Cc2ccccc2)CC1` [3-10, (2R)-N-[2-(1-benzylpiperidin-4-yl)ethyl]-4-[3-fluoro-5-(trifluoromethyl)pyridin-2-yl]-2-methylpiperazine-1-carboxamide], for which the Ki is 100 to 1000 nM at human M1 receptor; 10 to 100 nM on human M2 receptor; 100 to 1000 nM at human M3 receptor; < 10 nM at human M4 receptor; > 1000 nM at human M5 receptor.
`C[C@@H]1CN(c2cc(F)cc(C#N)c2)CCN1C(=O)NCCC1CCN(Cc2ccccc2)CC1` [3-11, (2R)-N-[2-(1-benzylpiperidin-4-yl)ethyl]-4-(3-cyano-5-fluorophenyl)-2-methylpiperazine-1-carboxamide]: the Ki is > 1000 nM on human M1 receptor; 100 to 1000 nM on human M2 receptor; > 1000 nM at human M3 receptor; < 10 nM on human M4 receptor; > 1000 nM on human M5 receptor.
With `C[C@@H]1CN(c2cc(F)c(F)c(F)c2)CCN1C(=O)NCCC1CCN(Cc2ccccc2)CC1` [3-12, (2R)-N-[2-(1-benzylpiperidin-4-yl)ethyl]-2-methyl-4-(3,4,5-trifluorophenyl)piperazine-1-carboxamide], the Ki on human M1 receptor is 100 to 1000 nM; on human M2 receptor, 10 to 100 nM; on human M3 receptor, > 1000 nM; at human M4 receptor it was < 10 nM; at human M5 receptor, > 1000 nM.
In the case of `C[C@@H]1CN(c2ccc(OC(F)(F)F)cn2)CCN1C(=O)NCCC1CCN(Cc2ccccc2)CC1` [3-13, (2R)-N-[2-(1-benzylpiperidin-4-yl)ethyl]-2-methyl-4-[5-(trifluoromethoxy)pyridin-2-yl]piperazine-1-carboxamide], the Ki at human M1 receptor was 100 to 1000 nM; on human M2 receptor it was 100 to 1000 nM; at human M3 receptor, > 1000 nM; on human M4 receptor, < 10 nM; at human M5 receptor, > 1000 nM.
Take `C[C@@H]1CN(c2ccc3c(c2)OC(F)(F)O3)CCN1C(=O)NCCC1CCN(Cc2ccccc2)CC1` [4-6, (2R)-N-[2-(1-benzylpiperidin-4-yl)ethyl]-4-(2,2-difluoro-2H-1,3-benzodioxol-5-yl)-2-methylpiperazine-1-carboxamide]: the inhibition constant (Ki) was 100 to 1000 nM at human M1 receptor, 10 to 100 nM on human M2 receptor, < 10 nM on human M4 receptor and > 1000 nM on human M5 receptor.
Take `C[C@@H]1CN(c2nccc(C#N)n2)C[C@H](C)N1C(=O)NCCC1CCN(Cc2ccccc2)CC1` [4-14, (2S,6R)-N-[2-(1-benzylpiperidin-4-yl)ethyl]-4-(4-cyanopyrimidin-2-yl)-2,6-dimethylpiperazine-1-carboxamide]: the Ki at human M1 receptor was > 1000 nM; on human M2 receptor, 100 to 1000 nM; on human M4 receptor, < 10 nM; on human M5 receptor, > 1000 nM.
Regarding `C[C@@H]1CN(c2cccc(OC(F)(F)F)c2)CCN1C(=O)NCCC1CCN(Cc2ccccc2)CC1` [4-16, (2R)-N-[2-(1-benzylpiperidin-4-yl)ethyl]-2-methyl-4-[3-(trifluoromethoxy)phenyl]piperazine-1-carboxamide], the Ki on human M1 receptor is 100 to 1000 nM; at human M2 receptor it was 100 to 1000 nM; at human M4 receptor it was < 10 nM; at human M5 receptor, > 1000 nM.
In the case of `C[C@@H]1CN(c2ncc(C#N)c(N)n2)C[C@H](C)N1C(=O)NCCC1CCN(Cc2ccccc2)CC1` [4-54, (2S,6R)-4-(4-amino-5-cyanopyrimidin-2-yl)-N-[2-(1-benzylpiperidin-4-yl)ethyl]-2,6-dimethylpiperazine-1-carboxamide], the Ki was 100 to 1000 nM at human M1 receptor, 100 to 1000 nM at human M2 receptor, > 1000 nM at human M3 receptor and > 1000 nM on human M5 receptor.
`C[C@@H]1CN(c2cc(F)cc(F)c2)CCN1C(=O)NCCC1CCN(Cc2ccccc2)CC1` [4-72, (2R)-N-[2-(1-benzylpiperidin-4-yl)ethyl]-4-(3,5-difluorophenyl)-2-methylpiperazine-1-carboxamide]: the Ki is 100 to 1000 nM on human M1 receptor, 100 to 1000 nM on human M2 receptor, < 10 nM at human M4 receptor and > 1000 nM at human M5 receptor.
Turning to `C[C@@H]1CN(c2ncc(C#N)c(N)n2)C[C@H](C)N1C(=O)NCCC1CCN(Cc2ccccc2)CC1` [5-14, (2S,6R)-4-(4-amino-5-cyanopyrimidin-2-yl)-N-[2-(1-benzylpiperidin-4-yl)ethyl]-2,6-dimethylpiperazine-1-carboxamide], the figures for the Ki on human M1 receptor, at human M2 receptor and on human M4 receptor were 100 to 1000 nM, 100 to 1000 nM and < 10 nM, respectively.
In the case of `C[C@@H]1CN(c2ncc(C#N)cn2)C[C@H](C)N1C(=O)NCCC1CCN(Cc2ccccc2)CC1` [21-2, (2R,6S)-4-(5-cyanopyrimidin-2-yl)-2,6-dimethyl-N-(2-{1-[α,α-^2H-benzyl]piperidin-4-yl}ethyl)piperazine-1-carboxamide], the Ki was > 1000 nM on human M1 receptor, > 1000 nM at human M3 receptor, < 10 nM at human M4 receptor and > 1000 nM at human M5 receptor.
For the compound `C[C@@H]1CN(c2ncc(C(F)(F)F)cn2)CCN1C(=O)NCCC1CCN(Cc2ccccc2)CC1` [21-14, (2R)-2-methyl-N-(2-{1-[α,α-^2H-benzyl]piperidin-4-yl}ethyl)-4-[5-(trifluoromethyl)pyrimidin-2-yl]piperazine-1-carboxamide], on human M3 receptor, the Ki was 100 to 1000 nM.
As for `C[C@@H]1CN(c2ncc(C#N)cn2)C[C@H](C)N1C(=O)NCCC1CCN(Cc2ccccc2)CC1` [21-15, (2R,6S)-4-(5-cyanopyrimidin-2-yl)-2,6-dimethyl-N-(2-{1-[α,α-^2H-benzyl]piperidin-4-yl}ethyl)piperazine-1-carboxamide], the Ki is > 1000 nM on human M1 receptor, > 1000 nM at human M3 receptor, < 10 nM on human M4 receptor and > 1000 nM on human M5 receptor.
In the case of `C[C@@H]1CN(c2ncc(C(F)(F)F)c(N)n2)CCN1C(=O)NCCC1CCN(Cc2ccccc2)CC1` [21-16, (2R)-4-[4-amino-5-(trifluoromethyl)pyrimidin-2-yl]-2-methyl-N-(2-{1-[α,α-^2H-benzyl]piperidin-4-yl}ethyl)piperazine-1-carboxamide], the Ki at human M2 receptor is < 10 nM; at human M3 receptor, 10 to 100 nM; at human M4 receptor, < 10 nM; on human M5 receptor, 100 to 1000 nM.
Consider `C[C@@H]1CN(c2ncc(C(F)(F)F)c(N)n2)CCN1C(=O)NCCC1CCN(Cc2ccccc2)CC1` [21-17, (2R)-4-[4-amino-5-(trifluoromethyl)pyrimidin-2-yl]-2-methyl-N-(2-{1-[α,α-^2H-benzyl]piperidin-4-yl}ethyl)piperazine-1-carboxamide], for which the Ki was < 10 nM at human M2 receptor, 10 to 100 nM at human M3 receptor, < 10 nM on human M4 receptor and 100 to 1000 nM on human M5 receptor.

These data come from patent US11033539B2, “Compounds of formulas (VII), (VIII), (IX), (XI), (XII), (XIII), and (XIV) as muscarinic receptor 4(M4) antagonists for treating neurological diseases” (Neurocrine Biosciences, Inc., priority 2015, dated 2021).
